Data on four substances can be found in patent US20140072613A1, “Compositions and Methods for Treating Cutaneous Scarring” (priority 2012, published 2014).

The subject of one assay is PKA. Conditions: AIP 1 μM; cited from earlier work.
In assay [1] the test system is Ca^2+/calmodulin-dependent protein kinase II (CaMKII). To be noted: cited from earlier work.
The target of a further assay is CaMKIV (Homo sapiens, UniProt Q16566). Conditions: AIP 1 μM; cited from earlier work.
The subject of another assay is PKC. Conditions: AIP 1 μM; cited from earlier work.
Assay [2] concerns the target 266 human kinases (Homo sapiens, UniProt Q9H1R3). Put plainly: biochemical. Conditions: MLCK(h); 100 μM. Format: biochemical. From the text: (§1) Specifically, in these assays, a positively charged substrate is phosphorylated with a radiolabeled phosphate group from an ATP if the kinase is not inhibited by an inhibitor peptide. The positively charged substrate then is attracted to a negatively charged filter membrane, quantified with a scintillation counter, and compared to a 100% activity control.

For a further assay, the target named is MAPKAP-K2 (h) (Homo sapiens, UniProt P49137). The assay can be described thus: Millipore radiometric kinase assay (IC50 Profiler Express / kinase profiling). Format: biochemical.
Sequence of MAPKAP-K2 (h) (P49137 whole entry): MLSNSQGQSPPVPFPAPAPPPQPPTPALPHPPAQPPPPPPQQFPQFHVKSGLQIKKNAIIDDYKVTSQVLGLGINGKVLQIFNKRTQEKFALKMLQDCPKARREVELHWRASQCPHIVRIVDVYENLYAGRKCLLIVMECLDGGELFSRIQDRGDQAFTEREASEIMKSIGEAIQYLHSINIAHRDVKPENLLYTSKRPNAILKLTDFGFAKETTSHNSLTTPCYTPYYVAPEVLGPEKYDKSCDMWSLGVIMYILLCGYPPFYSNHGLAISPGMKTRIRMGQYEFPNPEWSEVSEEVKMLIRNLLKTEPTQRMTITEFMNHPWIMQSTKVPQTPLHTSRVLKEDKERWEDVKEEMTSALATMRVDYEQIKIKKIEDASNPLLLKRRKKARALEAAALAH
Description: as §1

In the next assay the target is MAPKAP-K3 (h) (Homo sapiens, UniProt Q16644). Described as above. Type of assay: biochemical.
Sequence of MAPKAP-K3 (h) (Q16644 whole entry): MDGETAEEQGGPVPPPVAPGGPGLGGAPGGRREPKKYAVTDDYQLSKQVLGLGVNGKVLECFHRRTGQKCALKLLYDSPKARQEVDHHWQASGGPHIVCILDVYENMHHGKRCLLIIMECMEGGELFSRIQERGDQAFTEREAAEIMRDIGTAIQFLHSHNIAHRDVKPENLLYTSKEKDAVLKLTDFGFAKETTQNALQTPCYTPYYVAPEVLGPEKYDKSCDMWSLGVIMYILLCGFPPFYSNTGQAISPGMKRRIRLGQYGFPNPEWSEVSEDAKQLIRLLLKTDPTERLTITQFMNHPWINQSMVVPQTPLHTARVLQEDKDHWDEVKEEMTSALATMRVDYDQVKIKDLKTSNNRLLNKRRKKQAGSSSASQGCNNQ
Description: as §1

Another assay addresses TrkB (h) (Homo sapiens, UniProt Q16620). The description is as above. Type of assay: biochemical.
Description: as §1

In the next assay the target is T1, Melanocortin 4 (Homo sapiens, UniProt P32245).
T1 construct: Cerep
T1 sequence (P32245 whole entry): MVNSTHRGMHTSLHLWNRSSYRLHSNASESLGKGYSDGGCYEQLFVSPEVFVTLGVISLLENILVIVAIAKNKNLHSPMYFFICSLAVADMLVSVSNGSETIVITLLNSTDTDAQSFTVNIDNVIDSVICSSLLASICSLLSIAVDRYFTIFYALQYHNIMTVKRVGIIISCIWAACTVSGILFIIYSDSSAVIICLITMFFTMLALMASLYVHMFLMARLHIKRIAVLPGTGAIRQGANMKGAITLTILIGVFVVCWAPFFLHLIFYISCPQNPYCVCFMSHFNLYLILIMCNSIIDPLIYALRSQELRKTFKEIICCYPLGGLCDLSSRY
The assay can be described thus: Cerep binding assay (radiolabelled ligand competition). As for the experimental part:
(§2) Each binding assay was performed in 6-control wells with or without vehicle plus an 8-point dose-response of the relevant reference compound.

The next assay deals with T2, Neurokinin 2 (Homo sapiens, UniProt P21452).
T2 construct: Cerep
T2 sequence (P21452 whole entry): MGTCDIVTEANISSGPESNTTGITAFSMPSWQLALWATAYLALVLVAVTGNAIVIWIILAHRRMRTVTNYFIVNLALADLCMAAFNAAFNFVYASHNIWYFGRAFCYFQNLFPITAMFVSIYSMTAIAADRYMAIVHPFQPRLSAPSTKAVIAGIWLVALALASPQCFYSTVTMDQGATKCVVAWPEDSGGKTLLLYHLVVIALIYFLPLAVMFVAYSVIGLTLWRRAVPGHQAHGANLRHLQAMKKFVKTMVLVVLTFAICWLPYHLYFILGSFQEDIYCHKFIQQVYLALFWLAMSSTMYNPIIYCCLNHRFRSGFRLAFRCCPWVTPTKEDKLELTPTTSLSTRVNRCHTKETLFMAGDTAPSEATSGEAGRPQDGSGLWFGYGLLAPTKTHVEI
The description is as above. As for the experimental part: as §2

The target of another assay is T3, Serotonin 2A (Homo sapiens, UniProt P28223).
T3 construct: Cerep
T3 sequence (P28223 whole entry): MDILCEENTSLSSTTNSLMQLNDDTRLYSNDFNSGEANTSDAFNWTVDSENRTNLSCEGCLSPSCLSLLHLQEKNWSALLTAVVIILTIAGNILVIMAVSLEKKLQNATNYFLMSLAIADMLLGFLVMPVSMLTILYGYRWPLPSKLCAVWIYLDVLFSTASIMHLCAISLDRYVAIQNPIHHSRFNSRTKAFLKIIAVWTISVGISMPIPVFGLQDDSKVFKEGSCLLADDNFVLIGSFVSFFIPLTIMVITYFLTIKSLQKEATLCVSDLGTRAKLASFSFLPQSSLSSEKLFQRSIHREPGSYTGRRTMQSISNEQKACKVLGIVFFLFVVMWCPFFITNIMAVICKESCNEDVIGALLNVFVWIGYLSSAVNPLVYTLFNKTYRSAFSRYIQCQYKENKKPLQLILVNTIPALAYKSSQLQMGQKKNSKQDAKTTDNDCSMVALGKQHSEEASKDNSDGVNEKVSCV
Described as above. As for the experimental part: as §2

Another assay addresses CaMK1δ (h) (Homo sapiens, UniProt Q8IU85). Put plainly: biochemical.
Description: as §1

The target of a further assay is MSK1 (h) (Homo sapiens, UniProt O75582). The assay can be described thus: biochemical.
Sequence of MSK1 (h) (O75582 whole entry): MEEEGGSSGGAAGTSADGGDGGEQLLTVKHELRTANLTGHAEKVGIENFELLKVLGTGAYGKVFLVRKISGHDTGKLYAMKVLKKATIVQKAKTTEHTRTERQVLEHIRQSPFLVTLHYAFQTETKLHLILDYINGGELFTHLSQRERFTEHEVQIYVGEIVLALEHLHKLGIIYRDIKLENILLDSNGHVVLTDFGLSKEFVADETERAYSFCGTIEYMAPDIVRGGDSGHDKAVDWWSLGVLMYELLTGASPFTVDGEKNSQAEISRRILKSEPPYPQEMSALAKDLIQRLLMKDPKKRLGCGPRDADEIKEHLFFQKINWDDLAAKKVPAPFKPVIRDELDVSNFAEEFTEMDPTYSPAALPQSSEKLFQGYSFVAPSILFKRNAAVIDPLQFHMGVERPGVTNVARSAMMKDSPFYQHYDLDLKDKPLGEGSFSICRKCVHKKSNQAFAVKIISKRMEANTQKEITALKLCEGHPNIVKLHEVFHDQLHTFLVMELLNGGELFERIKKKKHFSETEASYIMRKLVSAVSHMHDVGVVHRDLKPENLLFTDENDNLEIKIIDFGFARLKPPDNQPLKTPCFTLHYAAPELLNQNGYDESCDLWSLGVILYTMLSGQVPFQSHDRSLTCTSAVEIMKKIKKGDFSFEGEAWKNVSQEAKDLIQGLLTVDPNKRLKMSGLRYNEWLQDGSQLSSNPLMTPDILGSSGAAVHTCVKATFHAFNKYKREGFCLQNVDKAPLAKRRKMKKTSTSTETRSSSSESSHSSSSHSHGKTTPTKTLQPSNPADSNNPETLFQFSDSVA
Description: as §1

Another assay addresses EphA2 (h) (Homo sapiens, UniProt P29317). Put plainly: biochemical.
Description: as §1

Another assay concerns the target Fes(h) (Homo sapiens, UniProt P07332). Put plainly: biochemical.
Description: as §1

The next assay addresses Fgr (h) (Homo sapiens, UniProt P09769). The assay can be described thus: biochemical.
Description: as §1

For another assay, the target named is FGFR2 (h) (Homo sapiens, UniProt P21802). The assay can be described thus: biochemical.
Description: as §1

Another assay addresses Pim-1 (h) (Homo sapiens, UniProt P11309). Put plainly: biochemical.
Description: as §1

The target in a further assay is Yes (h) (Homo sapiens, UniProt P07947). Put plainly: biochemical.
Description: as §1

For another assay, the target named is CaMKI (h) (Homo sapiens, UniProt Q14012). The assay can be described thus: biochemical.
Sequence of CaMKI (h) (Q14012 whole entry): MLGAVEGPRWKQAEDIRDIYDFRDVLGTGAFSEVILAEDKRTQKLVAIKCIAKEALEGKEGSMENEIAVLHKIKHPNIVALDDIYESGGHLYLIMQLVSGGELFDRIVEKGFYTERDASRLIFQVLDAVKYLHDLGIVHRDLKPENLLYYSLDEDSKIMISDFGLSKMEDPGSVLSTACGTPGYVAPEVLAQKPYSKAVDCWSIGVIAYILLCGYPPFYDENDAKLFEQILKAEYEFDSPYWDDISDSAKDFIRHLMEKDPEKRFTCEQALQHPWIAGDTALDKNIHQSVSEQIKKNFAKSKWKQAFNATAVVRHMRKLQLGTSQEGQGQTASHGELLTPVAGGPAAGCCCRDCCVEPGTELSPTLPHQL
Description: as §1

A further assay deals with T4, DMPK (h) (Homo sapiens, UniProt Q09013).
T4 sequence (Q09013 1-629): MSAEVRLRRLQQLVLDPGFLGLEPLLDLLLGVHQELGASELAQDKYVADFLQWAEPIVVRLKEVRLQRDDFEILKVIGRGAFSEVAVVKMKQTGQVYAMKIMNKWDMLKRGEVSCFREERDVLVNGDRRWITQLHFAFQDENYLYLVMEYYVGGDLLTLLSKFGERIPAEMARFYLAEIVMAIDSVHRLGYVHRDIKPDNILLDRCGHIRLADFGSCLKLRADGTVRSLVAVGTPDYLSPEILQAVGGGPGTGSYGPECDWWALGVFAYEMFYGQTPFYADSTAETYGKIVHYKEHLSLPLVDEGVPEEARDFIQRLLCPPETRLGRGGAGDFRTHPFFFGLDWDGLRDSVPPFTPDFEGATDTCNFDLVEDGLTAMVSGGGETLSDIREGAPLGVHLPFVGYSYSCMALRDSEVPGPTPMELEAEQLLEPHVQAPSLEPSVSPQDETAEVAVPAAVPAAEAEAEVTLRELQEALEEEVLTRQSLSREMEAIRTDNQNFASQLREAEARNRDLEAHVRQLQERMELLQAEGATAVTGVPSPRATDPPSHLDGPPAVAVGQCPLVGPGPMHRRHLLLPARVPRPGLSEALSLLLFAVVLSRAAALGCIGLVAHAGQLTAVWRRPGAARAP
The assay can be described thus: Millipore radiometric kinase assay (IC50 Profiler Express). Type of assay: biochemical.
Description: as §1

The next assay addresses T5, DRAK1 (h) (Homo sapiens, UniProt Q9UEE5).
T5 sequence (Q9UEE5 1-414): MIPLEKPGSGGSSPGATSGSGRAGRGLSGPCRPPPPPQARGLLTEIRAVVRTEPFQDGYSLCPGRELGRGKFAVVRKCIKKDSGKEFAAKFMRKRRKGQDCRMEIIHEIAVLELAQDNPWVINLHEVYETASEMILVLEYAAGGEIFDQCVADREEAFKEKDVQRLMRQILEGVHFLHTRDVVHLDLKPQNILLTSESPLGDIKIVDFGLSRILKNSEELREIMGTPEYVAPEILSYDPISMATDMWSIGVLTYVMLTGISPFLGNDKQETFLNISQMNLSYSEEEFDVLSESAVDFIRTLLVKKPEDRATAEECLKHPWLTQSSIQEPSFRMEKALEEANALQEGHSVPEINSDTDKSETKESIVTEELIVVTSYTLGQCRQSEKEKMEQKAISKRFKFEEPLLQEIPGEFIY
Described as above. Format: biochemical.
Description: as §1

A further assay addresses LOK (h) (Homo sapiens, UniProt O94804). The description is as above. Type of assay: biochemical.
Description: as §1

The next assay has as its target EGFR (L861Q) (h) (Homo sapiens, UniProt P00533, L861Q). The description is as above. Format: biochemical.
Description: as §1

Assay [3] relates to 266 human kinases. The assay can be described thus: biochemical. Conditions: at 100 μM. Format: biochemical.
Description: as §1

In assay [4] the test system is hypertrophic scarring induced by mechanical loading. Put plainly: Mouse model of hypertrophic scarring induced by mechanical loading: scar area, gross and histological. Type of assay: in vivo. To be noted: 50 μg/kg intraperitoneal daily day 0 through day 14.
Description: Dorsal skins were distracted laterally along both sides of the wound edge by a distraction rate of 1 mm/day from day 4 to day 7, and then 2 mm/day from day 8 to day 14. […] At day 14, skin wounds were photographed digitally, and scar areas were measured by Image J software. Tissue was harvested for RNA extraction, Florescence-Activated Cell Sorting (FACS) analysis, and histological examination.
Digital photographs were taken on the day of surgery and every two days thereafter. Gross scar appearance was assessed by tracing the wound margin and calculating the hypertrophic scar area.
Scar samples from each mouse were fixed in 10% formalin and embedded in paraffin. Sections were made and stained with hematoxylin and eosin (H&E) to assess scar tissue deposition. […] Scar areas were outlined, and areas were measured by using Image J software. Scale bar=100 μm.
Setting [5] is: read-out: % Activity of off-target receptor.

Where no end group is shown, it is not given here.

Sequence of TrkB (h) (Q16620 32-822): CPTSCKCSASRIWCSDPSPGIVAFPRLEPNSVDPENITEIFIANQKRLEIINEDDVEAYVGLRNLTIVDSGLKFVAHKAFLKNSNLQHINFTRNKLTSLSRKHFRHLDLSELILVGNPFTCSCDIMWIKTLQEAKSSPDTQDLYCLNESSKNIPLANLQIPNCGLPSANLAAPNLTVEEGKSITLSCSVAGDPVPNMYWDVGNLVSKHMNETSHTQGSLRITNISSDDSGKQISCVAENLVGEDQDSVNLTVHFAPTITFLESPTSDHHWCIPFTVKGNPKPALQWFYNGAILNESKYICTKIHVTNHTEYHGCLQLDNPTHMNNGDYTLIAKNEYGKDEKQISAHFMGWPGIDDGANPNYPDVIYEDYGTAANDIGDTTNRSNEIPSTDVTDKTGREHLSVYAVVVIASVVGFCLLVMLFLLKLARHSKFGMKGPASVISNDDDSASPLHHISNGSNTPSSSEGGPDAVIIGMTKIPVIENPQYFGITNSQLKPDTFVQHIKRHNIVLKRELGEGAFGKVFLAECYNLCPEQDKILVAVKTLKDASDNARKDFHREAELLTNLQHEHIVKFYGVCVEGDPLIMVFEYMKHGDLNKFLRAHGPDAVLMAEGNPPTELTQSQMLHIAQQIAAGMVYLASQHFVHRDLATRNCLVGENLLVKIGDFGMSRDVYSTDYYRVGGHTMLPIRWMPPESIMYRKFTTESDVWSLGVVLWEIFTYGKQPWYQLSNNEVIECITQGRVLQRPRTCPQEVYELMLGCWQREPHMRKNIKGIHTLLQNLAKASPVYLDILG
Sequence of Fgr (h) (P09769 whole entry): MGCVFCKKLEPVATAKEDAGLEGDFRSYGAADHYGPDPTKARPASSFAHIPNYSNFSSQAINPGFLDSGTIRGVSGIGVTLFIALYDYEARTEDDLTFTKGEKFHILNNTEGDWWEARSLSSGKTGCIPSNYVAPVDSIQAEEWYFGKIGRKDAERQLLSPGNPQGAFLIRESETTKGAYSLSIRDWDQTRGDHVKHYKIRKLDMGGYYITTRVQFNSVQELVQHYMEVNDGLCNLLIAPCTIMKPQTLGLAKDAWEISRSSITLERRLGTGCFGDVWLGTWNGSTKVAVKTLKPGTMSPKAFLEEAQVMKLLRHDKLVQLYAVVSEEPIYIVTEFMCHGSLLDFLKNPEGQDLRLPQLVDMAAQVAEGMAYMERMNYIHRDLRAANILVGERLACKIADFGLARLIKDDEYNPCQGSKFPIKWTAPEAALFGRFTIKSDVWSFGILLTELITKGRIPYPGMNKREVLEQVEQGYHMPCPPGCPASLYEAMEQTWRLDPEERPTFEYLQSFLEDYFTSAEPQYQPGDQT
Sequence of CaMKIV (Q16566 whole entry, species assumed): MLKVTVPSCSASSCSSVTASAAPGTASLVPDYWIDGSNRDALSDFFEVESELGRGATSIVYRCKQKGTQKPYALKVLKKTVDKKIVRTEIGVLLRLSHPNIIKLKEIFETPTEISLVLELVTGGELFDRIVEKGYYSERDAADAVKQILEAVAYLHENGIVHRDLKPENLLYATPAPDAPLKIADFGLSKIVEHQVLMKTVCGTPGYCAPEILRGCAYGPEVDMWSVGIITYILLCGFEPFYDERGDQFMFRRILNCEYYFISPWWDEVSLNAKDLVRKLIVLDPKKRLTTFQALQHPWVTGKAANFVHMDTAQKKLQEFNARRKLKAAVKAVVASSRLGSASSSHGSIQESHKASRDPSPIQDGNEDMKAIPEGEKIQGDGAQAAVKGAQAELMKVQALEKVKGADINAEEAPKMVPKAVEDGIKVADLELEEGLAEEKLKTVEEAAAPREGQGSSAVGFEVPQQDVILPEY

For “autocamtide-2 related inhibitory peptide [AIP]”, the PKA activity result in the assay with PKA is “not affected”. In assay [1] (AIP 1 μM), the CaMKII activity entry is on record as “inhibited completely”. Further, the IC50 (as a rule, the concentration that gives 50% inhibition) in assay [1] was 0.1 µM. Further, the CaMKIV activity result at CaMKIV is reported as “not affected”. Also, the PKC activity result in the assay on PKC is on record as “not affected”.
In the case of YARAAARQARAKALARQLGVAA [MMI-0100], the activity at 100 µM turned out to be 85% at 266 human kinases [2], 81% on Melanocortin 4 (setting [5]), 85% at Neurokinin 2 (setting [5]) and 86% at Serotonin 2A (setting [5]). Also, the IC50 worked out at 12.1 µM on MAPKAP-K2 (h); 15.8 µM against MAPKAP-K3 (h); 4.6 µM on TrkB (h); 45.8 µM at CaMK1δ (h); 102 µM on MSK1 (h); 181 µM on EphA2 (h). For the same substance, the IC50 stood at 174 µM against Fes(h); 141 µM against Fgr (h); 172 µM on FGFR2 (h); 71.7 µM at Pim-1 (h); 114 µM against Yes (h); 11.7 µM at CaMKI (h). Besides, the IC50 came to 34.1 µM on DMPK (h), 78.3 µM against DRAK1 (h), 47.6 µM on LOK (h) and 128 µM against EGFR (L861Q) (h). Also, the inhibition (usually the percentage by which the read-out fell short of the control) at 100 µM at MAPKAP-K2 (h) (at 100 μM, in vitro, read-out: inhibition of kinase activity of MK2) was above 65%; at MAPKAP-K3 (h) (at 100 μM, in vitro, read-out: inhibition of kinase activity of MK3), above 65%; against TrkB (h) (at 100 μM, in vitro) it was above 65%; on CaMKI (h) (read-out: inhibition of kinase activity of CaMKI), above 65%. The “inhibition of off-target protein” value on Melanocortin 4 (concentration not given), at Neurokinin 2 (concentration not given) and on Serotonin 2A (concentration not given) was “less than 30%” throughout.
As to FAKLAARLYRKALARQLGVAA [MMI-0300], the off-target kinase inhibition entry with 266 human kinases [3] is “very limited off-target kinase inhibition”. Moreover, the “gross scar appearance vs PBS-treated control mouse” value in assay [4] was “less inflammation and less scar formation”.
For the substance KAFAKLAARLYRKALARQLGVAA [MMI-0400], the off-target kinase inhibition entry in the assay with 266 human kinases [3] was “very limited off-target kinase inhibition”.
